Consider 2 compounds from US20250339399A1, “SUPRAMOLECULAR SELF-ASSEMBLY SYSTEM” (Beijing Creatron Institute of Pharmaceutical Research Co., …, priority 2022, published 2025).

For data set [1] the following is noted: cited from earlier work.
The conditions of data set [2]: prost derivatives; 37° C.; cited from earlier work.
The conditions of data set [3]: cited from earlier work. The source holds these as a separate data set.
The nature of data set [4]: Guest molecule concentration after incubation in initial medium without polymer (Comparative Example 1). Format: physicochemical. Particulars: 37° C., 0.05% SDS in pH 6.8 phosphate buffer. An outline of the steps: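 Dissolved guest content measured by HPLC of centrifuged supernatants (37° C., 13000 rpm, 5 min) sampled at 0.5 h, 3 h and 6 h. Incubation was polymer-free at 37° C.±0.5° C. in buffers of pH 2.0-7.4; nominal loading was set by maximum clinical dose.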

The nature of data set [5]: Binary (carrier), ternary and quaternary supramolecular self-assembly systems of polymer, carrier building block and target: guest concentration over incubation time (Examples 1-56). Format: physicochemical. The note with it: 6 h. An outline of the steps:
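Targets were incubated at 37 °C in pH 2.0–7.4 buffers with 0.5% polymer alone or with carrier building blocks, after 0.5 h sonication for ternary systems, and shaken at 200 rpm. Samples at 0.5–6 h were centrifuged and diluted ≥10-fold, and dissolved target was quantified by HPLC; surfactant was added if needed.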

A short description of data set [6]: Binary supramolecular self-assembly systems of polymer and target: guest concentration over incubation time (Comparative Example 2). Format: physicochemical. Particulars: for Concentration of guest molecule in solution / Times that of the initial medium: 6 h. As for the experimental part: Experiments were conducted according to the steps in Comparative Example 1, and quantitative analysis was carried out using the analytical method for each target to investigate the regulation ability […] stacking.

Where [7] appears, read: quaternary: 0.05% 314 + 0.25% 201.
[8] abbreviates: quaternary: 0.05% 314 + 0.25% 202.
[9] abbreviates: quaternary: 0.05% 314 + 0.25% 203.
Where [10] appears, read: quaternary: 0.05% 314 + 0.25% 204.
Setting [11] is: quaternary: 0.05% 314 + 0.25% 205.

Like-named read-outs stand apart in the source and are kept apart here.

Broadly, the Log P is a log measure of how a compound divides between an organic and an aqueous phase. With `CCNC(=O)CCC/C=C\C[C@@H]1[C@@H](/C=C/[C@@H](O)CCc2ccccc2)[C@H](O)C[C@@H]1O` [Bimatoprost, bimatoprost], the “Log P” value in data set [1] (prost derivatives, Table 31 (relevant information)) is recorded as 2.65. For the same compound, in data set [2], the Intrinsic solubility is 50 µg/mL.

Take `C=C(C)[C@@H]1CCC(C)=C[C@H]1c1c(O)cc(CCCCC)cc1O` [Cannabidiol]: the “Concentration in the system” value is 25500 µg/mL in data set [3] (200 mM methyl-beta-cyclodextrin, literature) and “lower than 1 mg/mL” in data set [3] (about 5-10 mM methyl-beta-cyclodextrin, literature curve). The “Best result reported by the literature (concentration)” value in data set [3] (International Journal of Pharmaceutics 589 (2020) 119812) is 150 µg/mL. For the same compound, the “LogD7.4 or Log P” value in data set [1] is given as 6.32. The “Concentration of guest molecule measured after different incubated time” value in data set [4] (0.5 h) was found to be 11.4 µg/mL; in data set [4] (3 h) it was 11.8 µg/mL; in data set [4] (6 h), 8.5 µg/mL. In addition, the “Concentration of guest molecule in solution” value in data set [5] (setting [7]) came out at 732.2 µg/mL; in data set [5] (setting [8]), 399.4 µg/mL; in data set [5] (setting [9]), 648.3 µg/mL; in data set [5] (setting [10]) it was 725.0 µg/mL; in data set [5] (setting [11]) it was 581.7 µg/mL; in data set [5] (ternary: 102M + 0.1% 310), 580.1 µg/mL. Besides, the “Concentration of guest molecule in solution” value in data set [5] (ternary: 102M + 0.25% 310) worked out at 481.2 µg/mL; in data set [6] (binary: 0.25% 101) it was 342.5 µg/mL; in data set [6] (binary: 0.25% 103E3), 55.7 µg/mL; in data set [6] (binary: 0.25% 106 (K30)), 155.7 µg/mL. In addition, the “Times that of the initial medium” value in data set [5] (setting [7]) turned out to be 86 times; in data set [5] (setting [8]), 47 times; in data set [5] (setting [9]), 76 times; in data set [5] (setting [10]) it was 85 times; in data set [5] (setting [11]), 68 times; in data set [6] (binary: 0.25% 101) it was 40 times. Moreover, the “Times that of the initial medium” value in data set [6] (binary: 0.25% 106 (K30)) is 18 times. For the same compound, the “Concentration of the target in the solution measured after different incubation time” value (from here on “Concentration … after different incubation time”) in data set [6] (binary system with 0.5% polymer 101, incubation 0.5 h) turned out to be 282.6 µg/mL; in data set [6] (binary system with 0.5% polymer 101, incubation 3 h), 293.7 µg/mL; in data set [6] (binary system with 0.5% polymer 101, incubation 6 h), 342.5 µg/mL; in data set [6] (binary system with 0.5% polymer 102, incubation 0.5 h) it was 307.3 µg/mL; in data set [6] (binary system with 0.5% polymer 102, incubation 3 h), 323.6 µg/mL; in data set [6] (binary system with 0.5% polymer 102, incubation 6 h) it was 333.1 µg/mL. In addition, the “Concentration … after different incubation time” value came to 54.8 µg/mL in data set [6] (binary system with 0.5% polymer 103, incubation 0.5 h); 55.1 µg/mL in data set [6] (binary system with 0.5% polymer 103, incubation 3 h); 55.7 µg/mL in data set [6] (binary system with 0.5% polymer 103, incubation 6 h); 148.1 µg/mL in data set [6] (binary system with 0.5% polymer 106, incubation 0.5 h); 149.4 µg/mL in data set [6] (binary system with 0.5% polymer 106, incubation 3 h); 155.7 µg/mL in data set [6] (binary system with 0.5% polymer 106, incubation 6 h). The “Concentration … after different incubation time” value in data set [6] (binary system with 0.5% polymer 107, incubation 0.5 h) was found to be 109.6 µg/mL; in data set [6] (binary system with 0.5% polymer 107, incubation 3 h) it was 97.2 µg/mL; in data set [6] (binary system with 0.5% polymer 107, incubation 6 h) it was 95.7 µg/mL; in data set [6] (binary system with 0.5% polymer 110, incubation 0.5 h), 168.9 µg/mL; in data set [6] (binary system with 0.5% polymer 110, incubation 3 h), 8.6 µg/mL; in data set [6] (binary system with 0.5% polymer 110, incubation 6 h), 7.3 µg/mL.
